In patent US8952025B2, “Multifunctional radical quenchers and their uses” (Arizona Board of Regents, A Body Corporate of the State of …, priority 2010, dated 2015):
Entries after “also recorded” stand apart in the source; their conditions may differ.

Columns and labels:
[1] = C11-BODIPY581/591 oxidation lipid peroxidation assay in liposomes; conditions: for quenching of lipid peroxidation (retention of C11-BODIPY581/591 fluorescence): 10 mM AAPH, phospholipid liposomes, phosphate buffer, 40° C.
Experimental: To overcome the problem of spectral overlap using cis-parinaric acid, a fluorescence assay for lipid peroxidation using a lipophilic probe belonging to the BODIPY class of fluorescent dyes was used. C11-BODIPY^581/591 (4,4-difluoro-5(4-phenyl-1,3-butadienyl)-4-bora-3a,4a-diaza-s-indacene-3-propionic acid) fluorescence shifts from red to green upon oxidation. C11-BODIPY^581/591 (Molecular Probes, Eugene, Oreg., USA) stock solution concentrations were determined by measuring the absorption of C11-BODIPY^581/591 at 582 nm using a molar extinction coefficient of 140,000 mol^−1 cm^−1(R. P. Haugland, (1999) Handbook of Fluorescent Probes and Research Chemicals, Molecular Probes, Inc., Eugene, Oreg.). The lipid peroxidation inducer 2,2′-Azobis (2-amidino-propane dihydrochloride) (AAPH) and the antioxidant compound α-tocopherol were obtained from Sigma (St. Louis, Mo., USA). Phospholipid bilayers were prepared from 1-stearoyl-2-oleoyl-phosphatidylcholine (SOPC) and 1,2-dilinoleoyl-phosphatidylcholine (DLPC) and were purchased from Avanti® polar lipids, INC (Alabaster, Ala., USA).
Phosphotidylcholine (PC) liposomes were prepared as described before (Guey-Shuang et al. (1982) Lipids. 17, 403-413). Briefly, DLPC (25 mg) and SOPC (25 mg) were dissolved in chloroform and the solvent was removed by nitrogen evaporation (˜2 hours to give a thin film of PC in a round bottom flask. The lipid film was hydrated with 50 mL of 10 mM Tris-HCl (pH 7.4), 100 mM KCl, shaken and sonicated for 15 seconds. The liposomes obtained were filtered several times through 0.2 μM membrane filter.
C11 BODIPY^581/591 was incorporated into liposomes and oxidized by peroxyl radicals derived from the decomposition of AAPH in presence and absence of the compounds. […] Liposomes were pre-incubated for 10 min with 200 nM C11 BODIPY^581/591 to allow their incorporation into the lipid phase of the liposomes. After the addition of AAPH (10 mM) the decay of red fluorescence was followed at λ exc=570 nm, λ em=600 nm. Relative fluorescence units were normalized to 100% intensity. Results obtained were verified by repeating experiments N=3 independent experiments.

CEM cells = experiment: Reactive oxygen species (ROS) assay, DCFH-DA, DEM-treated cells; format: cell-based, human
Source text: Cellular ROS production can be monitored using 2′,7′-dichlorodihydrofluorescein diacetate (DCFH-DA) (LeBel et al. (1992) Chem. Res. Toxicol. 5, 227-231) (Molecular Probes, Eugene, Oreg., USA), a membrane permeable and oxidant-sensitive fluorescent dye. DCFH-DA is a non-fluorescent derivative of fluorescein that emits fluorescence after being oxidized by hydrogen peroxide and other ROS. The emitted fluorescence is directly proportional to the concentration of hydrogen peroxide. DCFH-DA is nonionic and nonpolar and is easily taken up by cells. Once inside the cell, DCFH-DA is hydrolyzed by cellular esterases to non-fluorescent DCFH which traps the dye in the cell. In the presence of ROS including hydrogen peroxide, DCFH is oxidized to the highly fluorescent compound dichlorofluorescein (DCF). The intracellular DCF fluorescence is used as an index of cellular ROS production.
Cellular oxidative stress was induced by pharmacological depletion of glutathione (GSH) using the chemical diethylmaleate (DEM). ROS production was assessed by monitoring DCF fluorescence. Leukemic CEM cells (ATCC®, catalogue number CRL-2264) were cultured in RPMI (GIBCO, Grand island, N.Y., USA) with 10% FCS, 2 mM glutamine (HyClone, South Logan, Utah, USA) and 1% penicillin-streptomycin mix antibiotics (Cellgro, Manassan, Va., USA) supplements. Cells were maintained in the log phase at a concentration of between 1×10^5 and 1×10^6 cells/mL. CEM cells (1×10^6 cell/mL) were plated (1 mL) in twelve well plate and treated with the invention compounds (final concentration 1 and 5 μM), and incubated for two hours at 37° C., 5% CO2. The compounds tested were prepared by first making stock solutions (2.5 mM) in dimethylsulfoxide (DMSO). Cells were treated with 5 mM DEM for 30 minutes and collected by centrifugation at 300×g for 3 min and then washed twice with Hanks' Balanced Salt Solution (HSSB) buffer (Sigma, St. Louis, Mo. USA). Cells were resuspended in HSSB buffer+10 mM glucose and incubated at 37° C. in the dark for 20 min with 10 μM DCFH-DA. Cells were collected by centrifugation at 300×g for 3 min and then washed twice with HSSB buffer. The samples were analyzed immediately by flow cytometry (Becton-Dickinson FACS Caliber), (Cell Quest software, BD Biosciences) using 488 nm excitation laser and FL1-H channel 538 nm emission filter. In each analysis, 10,000 events were recorded after cell debris were electronically gated out. Results obtained were verified by repeating experiments N=3 independent experiments. Authentic hydrogen peroxide was used as a positive control.

Human CEM leukemia cells = experiment: Live/Dead Viability/Cytotoxicity flow cytometry assay; format: cell-based; conditions: overnight incubation, then DEM 3 hours
Experimental: Cell viability and cytotoxicity were determined by simultaneous staining live and dead cells using a two-color fluorescence assay, the Live/Dead® Viability/Cytotoxicity Kit (Molecular Probes). This assay is used to measure two recognized parameters of cell viability, intracellular esterase activity and plasma integrity. The membrane-impermeant DNA dye ethidium homodimer-1 (EthD-1) was used to identify dead cells whose plasma membrane integrity was disrupted. The membrane-permeant dye calcein-AM was used to label live cells. It penetrates into the cells where it is metabolized by cytoplasmic esterases and becomes a fluorescent but membrane-impermeant probe which is retained in viable cells. Human CEM leukemia cells were incubated overnight in RPMI medium (control) and in the presence of test compound and then treated with DEM for 3 hours. Cells were stained with 0.2 μM calcein-AM and 0.4 μM EthD-1. After 15 minutes, flow cytometry analysis was carried out using excitation at 488 nm. The green-fluorescent (539 nm) FL1-H channel, live-cell population appears in the lower right quadrant and the red-fluorescent (585 nm) FL2-H channel dead-cell population appears in the upper left quadrant (FIG. 11). In each analysis, 10,000 events were recorded. Results obtained were verified in three independent experiments.

Question: For `Cc1nc(N(C)C)nc(CCCCCCCCCCO)c1O` [Compound A, 2-N,N-dimethylamino-5-hydroxy-4-methyl-6-(10-hydroxydecyl)-pyrimidine], which “quenching of lipid peroxidation (retention of C11-BODIPY581/591 fluorescence)” value [1] is on record?
Answer: more effective in preventing lipid peroxidation than idebenone and its reduced form (Idebenol); also recorded: much more effective than idebenone and its reduced form in preventing lipid peroxidation

Question: What about the “protection against lipid peroxidation” value ([1]; compound 15 μM, AAPH, liposomes) of the same compound?
Answer: complete protection

Question: And the “protection against ROS production (DCF fluorescence)” value (“protection against ROS production” below) (CEM cells; compound 1 μM, 5 mM DEM)?
Answer: complete protection

Question: What about the “protection against ROS production” value (CEM cells; compound 5 μM, 5 mM DEM) of the same compound?
Answer: significantly more effective in blocking diethylmaleate-induced ROS production compared to idebenone or its reduced form (Idebenol); also recorded: protected the cells

Question: What about the “suppression of ROS production (DCF fluorescence)” value (CEM cells; pretreatment 0.5, 1 or 5 μM, DEM) of the same compound?
Answer: more effective than idebenone at all tested concentrations; also recorded: more effective than idebenone in suppressing ROS in a dose-dependent fashion

Question: With `COC1=C(OC)C(=O)C(CCCCCCCCCCO)=C(C)C1=O` [idebenone, reference compound] as the compound, how does the “protection against ROS production” value (CEM cells; compound 5 μM, 5 mM DEM) read?
Answer: only limited effect

Question: Which “maintaining cell viability (Live/Dead kit, flow cytometry)” value (Human CEM leukemia cells) does the source give for `Cc1nc2c(c(CC[C@](C)(O)CCC[C@H](C)CCC[C@H](C)CCCC(C)C)c1O)CCN2C` [Compound C, 4-((3R,7R,11R)-3-hydroxy-3,7,11,15-tetramethylhexadecyl)-1,6-dimethyl-2,3-dihydro-1H-pyrrolo[2,3-b]pyridine-5-ol] here?
Answer: both effective in maintaining cell viability following treatment with DEM, with compound C being somewhat more effective; also recorded: superiority of compound C

Question: What about the “quenching of lipid peroxidation (retention of C11-BODIPY581/591 fluorescence)” value [1] of the same compound?
Answer: prevent lipid peroxidation in a concentration-dependent fashion with scavenging activity much higher than α-tocopherol; also recorded: prevents lipid peroxidation in a concentration-dependent fashion with scavenging activity much greater than that of α-tocopherol and compound C redox core; also recorded: much more effective than α-tocopherol in quenching lipid peroxidation

Question: What about the “suppression of ROS (DCF fluorescence)” value (CEM cells; 1 μM, pretreatment 1, 3 or 6 hours, 5 mM DEM) of the same compound?
Answer: clearly more effective than α-tocopherol in suppressing ROS

Question: What about the “protection against ROS production” value (CEM cells; 5 μM, pretreatment 4 or 24 h) of the same compound?
Answer: better protection against ROS production than α-tocopherol after a 4-hour preincubation

Question: What about the “protection against ROS production” value (CEM cells; compound 5 μM, 5 mM DEM) of the same compound?
Answer: more effective in protecting glutathione depleted CEM cells than α-tocopherol; also recorded: protected the cells

Question: Which “maintaining cell viability (Live/Dead kit, flow cytometry)” value (Human CEM leukemia cells) does the source give for `Cc1c(C)c2c(c(C)c1O)CC[C@@](C)(CCC[C@H](C)CCC[C@H](C)CCCC(C)C)O2` [α-tocopherol, reference compound] here?
Answer: effective in maintaining cell viability following treatment with DEM

Question: What about the “protection against ROS production” value (CEM cells; compound 5 μM, 5 mM DEM) of the same compound?
Answer: ineffective
